Results on 18 molecules are retold here after ChEMBL document CHEMBL3774371, “Pyrrolidinones as Modulators of Neurogenesis” (2016).

SMILES strings stand for the structures.

The assay has as its system NSC. The experiment in a line: Neurogenic activity in human NSC assessed as increase in cells measured as ATP level after 4 days by Cell titre glo assay. Format: functional.

Turning to `COc1cc(N2CCN(Cc3cccc(OC(F)(F)F)c3)C2=O)ccc1-c1cn[nH]c1`, the EC150 amounted to 0.0092 µM.

Take `COc1cccc(CN2CCN(c3ccc(-c4cn[nH]c4)c(F)c3)C2=O)c1`: the EC150 stood at 0.0157 µM.

On to `CCOc1cccc(CN2CCN(c3ccc(-c4cn[nH]c4)c(OC)c3)C2=O)c1`, for which the EC150 amounted to 0.0739 µM.

For `COc1cc(N2CCN(Cc3cccc(C(F)(F)F)c3)C2=O)ccc1-c1cn[nH]c1`, the EC150 came to 0.0086 µM.

With `COc1cc(N2CCN(Cc3ccncc3)C2=O)ccc1-c1cn[nH]c1`, the EC150 amounted to 0.042 µM.

For `O=C1C(c2ccc(F)cc2)CCN1c1ccc(-c2cn[nH]c2)cc1` (stereo not drawn), the EC150 stood at 0.0417 µM.

For `COc1cc(N2CCC(c3cccc(F)c3)C2=O)ccc1-c1cn[nH]c1` (stereo not drawn), the EC150 is 0.0776 µM.

Consider `CCOc1cc(N2CCN(Cc3cccc(OC)c3)C2=O)ccc1-c1cn[nH]c1`, for which the EC150 turned out to be 0.8349 µM.

For the molecule `O=C1C(c2ccc(Cl)cc2)CCN1c1ccc(-c2cn[nH]c2)cc1` (stereo not drawn), the EC150 turned out to be 0.384 µM.

On to `COc1cc(N2CCCN(Cc3ccccc3Cl)C2=O)ccc1-c1cn[nH]c1`, for which the EC150 is 1.9918 µM.

Consider `COc1cccc(C2CCN(c3ccc(-c4cn[nH]c4)cc3)C2=O)c1` (stereo not drawn), for which the EC150 was determined as 0.0405 µM.

In the case of `CCC1(c2ccccc2)CCN(c2ccc(-c3cnco3)c(OC)c2)C1=O` (stereo not drawn), the EC150 came out at 3.2257 µM.

With `O=C1C(c2cccc(Cl)c2)CCN1c1ccc(-c2cn[nH]c2)cc1` (stereo not drawn), the EC150 was 0.2304 µM.

As for `CCOc1cc(N2CCN(CCc3ccccc3OC)C2=O)ccc1-c1cn[nH]c1`, the EC150 was determined as 1.9784 µM.

As to `COc1cccc(CC2CCN(c3ccc(-c4cn[nH]c4)c(OC)c3)C2=O)c1` (stereo not drawn), the EC150 was 0.0239 µM.

`COc1cc(N2CCC(c3ccccc3)C2=O)ccc1-c1cnco1` (stereo not drawn): the EC150 was 0.4712 µM.

In the case of `CCOc1cc(N2CCN(CCc3ccccc3Cl)C2=O)ccc1-c1cn[nH]c1`, the EC150 was 0.1358 µM.

Turning to `COc1cc(N2CCC(c3ccccc3Cl)C2=O)ccc1-c1cnco1` (stereo not drawn), the EC150 was 0.6783 µM.
